Assays:
Format in all cases: in vivo
[1] = test system: corn (Zea mays); assay: Test G Post-Emergence Protocol; conditions: Zea mays, post-emergence, 312 h; for plant injury at 15.625 g/ha: 15.625 g ai/ha, evaluated after 13 days (100=total damage to plant; 0=no damage to plant), read-out: Corn damage rating; for plant injury at 62.5 g/ha: 62.5 g ai/ha, read-out: Corn damage rating (100=total damage to plant; 0=no damage to plant); for plant injury at 62.5 g/ha / plant injury at 250 g/ha: evaluated after 13 days; for plant injury at 250 g/ha: 250 g ai/ha, read-out: damage to plant, Corn (100=total damage to plant; 0=no damage to plant)
In short: (§1)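 Sow in soil; grow 8 d (24/16 °C, 14 h light, 65% humidity); spray 15.625/62.5/250 g/ha in acetone:water 50:50 + 0.5% Tween 20; grow on, water twice daily; score damage 0–100 at 13 d.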

[2] = test system: redroot pigweed (Amaranthus retroflexus); assay: Test G Post-Emergence Protocol; conditions: Amaranthus retroflexus, post-emergence, 312 h; for pest or weed control at 15.625 g/ha: 15.625 g ai/ha, evaluated after 13 days (100=total damage to plant; 0=no damage to plant), read-out: Pigweed, Redroot damage rating; for pest or weed control at 62.5 g/ha: 62.5 g ai/ha, read-out: Pigweed, Redroot damage rating (100=total damage to plant; 0=no damage to plant); for pest or weed control at 62.5 g/ha / pest or weed control at 250 g/ha: evaluated after 13 days; for pest or weed control at 250 g/ha: 250 g ai/ha, read-out: damage to plant, Pigweed, Redroot (100=total damage to plant; 0=no damage to plant)
In short: as §1

[3] = test system: ivy-leaved morning glory (Ipomoea hederacea); assay: Test G Post-Emergence Protocol; conditions: Ipomoea, post-emergence, 312 h; for pest or weed control at 15.625 g/ha: 15.625 g ai/ha, evaluated after 13 days (100=total damage to plant; 0=no damage to plant), read-out: Morningglory, Ivy-leaved damage rating; for pest or weed control at 62.5 g/ha: 62.5 g ai/ha, read-out: Morningglory, Ivy-leaved damage rating (100=total damage to plant; 0=no damage to plant); for pest or weed control at 62.5 g/ha / pest or weed control at 250 g/ha: evaluated after 13 days; for pest or weed control at 250 g/ha: 250 g ai/ha, read-out: damage to plant, Morningglory, Ivy-leaved (100=total damage to plant; 0=no damage to plant)
In short: as §1

[4] = test system: velvetleaf (Abutilon theophrasti); assay: Test G Post-Emergence Protocol; conditions: Abutilon theophrasti, post-emergence, 312 h; for pest or weed control at 15.625 g/ha: 15.625 g ai/ha, evaluated after 13 days (100=total damage to plant; 0=no damage to plant), read-out: Velvetleaf damage rating; for pest or weed control at 62.5 g/ha: 62.5 g ai/ha, read-out: Velvetleaf damage rating (100=total damage to plant; 0=no damage to plant); for pest or weed control at 62.5 g/ha / pest or weed control at 250 g/ha: evaluated after 13 days; for pest or weed control at 250 g/ha: 250 g ai/ha, read-out: damage to plant, Velvetleaf (100=total damage to plant; 0=no damage to plant)
In short: as §1

[5] = test system: giant foxtail (Setaria faberi); assay: Test G Post-Emergence Protocol; conditions: Setaria faberi, post-emergence, 312 h; for pest or weed control at 15.625 g/ha: 15.625 g ai/ha, evaluated after 13 days (100=total damage to plant; 0=no damage to plant), read-out: Foxtail, Giant damage rating; for pest or weed control at 62.5 g/ha: 62.5 g ai/ha, read-out: Foxtail, Giant damage rating (100=total damage to plant; 0=no damage to plant); for pest or weed control at 62.5 g/ha / pest or weed control at 250 g/ha: evaluated after 13 days; for pest or weed control at 250 g/ha: 250 g ai/ha, read-out: damage to plant, Foxtail, Giant (100=total damage to plant; 0=no damage to plant)
In short: as §1

[6] = test system: barnyardgrass (Echinochloa crus-galli); assay: Test G Post-Emergence Protocol; conditions: Echinochloa crus-galli, post-emergence, 312 h; for pest or weed control at 15.625 g/ha: 15.625 g ai/ha, evaluated after 13 days (100=total damage to plant; 0=no damage to plant), read-out: Barnyardgrass damage rating; for pest or weed control at 62.5 g/ha: 62.5 g ai/ha, read-out: Barnyardgrass damage rating (100=total damage to plant; 0=no damage to plant); for pest or weed control at 62.5 g/ha / pest or weed control at 250 g/ha: evaluated after 13 days; for pest or weed control at 250 g/ha: 250 g ai/ha, read-out: damage to plant, Barnyardgrass (100=total damage to plant; 0=no damage to plant)
In short: as §1

[7] = test system: corn (Zea mays); assay: Test G Pre-Emergence Protocol; conditions: Zea mays, pre-emergence, 312 h, evaluated after 13 days; for plant injury at 15.625 g/ha: 15.625 g ai/ha; for plant injury at 15.625 g/ha / plant injury at 250 g/ha: read-out: Corn damage rating (100=total damage to plant; 0=no damage to plant); for plant injury at 62.5 g/ha: 62.5 g ai/ha, 100=total damage to plant, 0=no damage to plant, read-out: plant damage rating, Corn; for plant injury at 250 g/ha: 250 g ai/ha
In short: (§2)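 Glasshouse pre-emergence test: soil-sown seeds, sprayed after 1 d at 15.625, 62.5 or 250 g/ha. Conditions 24/16° C day/night, 14 h light, 65% humidity, watering twice daily. Rating 13 d post-spray (100 = total damage).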

[8] = test system: redroot pigweed (Amaranthus retroflexus); assay: Test G Pre-Emergence Protocol; conditions: Amaranthus retroflexus, pre-emergence, 312 h, evaluated after 13 days; for pest or weed control at 15.625 g/ha: 15.625 g ai/ha; for pest or weed control at 15.625 g/ha / pest or weed control at 250 g/ha: read-out: Pigweed, Redroot damage rating (100=total damage to plant; 0=no damage to plant); for pest or weed control at 62.5 g/ha: 62.5 g ai/ha, 100=total damage to plant, 0=no damage to plant, read-out: plant damage rating, Pigweed, Redroot; for pest or weed control at 250 g/ha: 250 g ai/ha
In short: as §2

[9] = test system: ivy-leaved morning glory (Ipomoea hederacea); assay: Test G Pre-Emergence Protocol; conditions: Ipomoea, pre-emergence, 312 h, evaluated after 13 days; for pest or weed control at 15.625 g/ha: 15.625 g ai/ha, read-out: Morning-glory, Ivy-leaved damage rating (100=total damage to plant; 0=no damage to plant); for pest or weed control at 62.5 g/ha: 62.5 g ai/ha, 100=total damage to plant, 0=no damage to plant, read-out: plant damage rating, Morningglory, Ivy-leaved; for pest or weed control at 250 g/ha: 250 g ai/ha, read-out: Morningglory, Ivy-leaved damage rating (100=total damage to plant; 0=no damage to plant)
In short: as §2

[10] = test system: velvetleaf (Abutilon theophrasti); assay: Test G Pre-Emergence Protocol; conditions: Abutilon theophrasti, pre-emergence, 312 h, evaluated after 13 days; for pest or weed control at 15.625 g/ha: 15.625 g ai/ha; for pest or weed control at 15.625 g/ha / pest or weed control at 250 g/ha: read-out: Velvetleaf damage rating (100=total damage to plant; 0=no damage to plant); for pest or weed control at 62.5 g/ha: 62.5 g ai/ha, 100=total damage to plant, 0=no damage to plant, read-out: plant damage rating, Velvetleaf; for pest or weed control at 250 g/ha: 250 g ai/ha
In short: as §2

[11] = test system: giant foxtail (Setaria faberi); assay: Test G Pre-Emergence Protocol; conditions: Setaria faberi, pre-emergence, 312 h, evaluated after 13 days; for pest or weed control at 15.625 g/ha: 15.625 g ai/ha; for pest or weed control at 15.625 g/ha / pest or weed control at 250 g/ha: read-out: Foxtail, Giant damage rating (100=total damage to plant; 0=no damage to plant); for pest or weed control at 62.5 g/ha: 62.5 g ai/ha, 100=total damage to plant, 0=no damage to plant, read-out: plant damage rating, Foxtail, Giant; for pest or weed control at 250 g/ha: 250 g ai/ha
In short: as §2

[12] = test system: barnyardgrass (Echinochloa crus-galli); assay: Test G Pre-Emergence Protocol; conditions: Echinochloa crus-galli, pre-emergence, 312 h, evaluated after 13 days; for pest or weed control at 15.625 g/ha: 15.625 g ai/ha, read-out: Barnyard grass damage rating (100=total damage to plant; 0=no damage to plant); for pest or weed control at 62.5 g/ha: 62.5 g ai/ha, 100=total damage to plant, 0=no damage to plant, read-out: plant damage rating, Barnyardgrass; for pest or weed control at 250 g/ha: 250 g ai/ha, read-out: Barnyardgrass damage rating (100=total damage to plant; 0=no damage to plant)
In short: as §2

Structure (SMILES)	plant injury at 15.625 g/ha [1] [%]	plant injury at 62.5 g/ha [1] [%]	plant injury at 250 g/ha [1] [%]	pest or weed control at 15.625 g/ha [2] [%]	pest or weed control at 62.5 g/ha [2] [%]	pest or weed control at 250 g/ha [2] [%]	pest or weed control at 15.625 g/ha [3] [%]	pest or weed control at 62.5 g/ha [3] [%]	pest or weed control at 250 g/ha [3] [%]	pest or weed control at 15.625 g/ha [4] [%]	pest or weed control at 62.5 g/ha [4] [%]	pest or weed control at 250 g/ha [4] [%]	pest or weed control at 15.625 g/ha [5] [%]	pest or weed control at 62.5 g/ha [5] [%]	pest or weed control at 250 g/ha [5] [%]	pest or weed control at 15.625 g/ha [6] [%]	pest or weed control at 62.5 g/ha [6] [%]	pest or weed control at 250 g/ha [6] [%]	plant injury at 15.625 g/ha [7] [%]	plant injury at 62.5 g/ha [7] [%]	other results
CN1C[C@H](c2ccc(C(F)(F)F)cc2)[C@@H](C(=O)Nc2ccccc2C(C)(C)C)C1=O (racemic) [Compound 1445]	0	0	0	0	0	0	0	0	0	0	0	0	0	0	0	0	0	0	0	0	plant injury at 250 g/ha [7]: 0%; pest or weed control at 15.625 g/ha [8]: 0%; pest or weed control at 62.5 g/ha [8]: 0%; pest or weed control at 250 g/ha [8]: 0%; pest or weed control at 15.625 g/ha [9]: 0%; pest or weed control at 62.5 g/ha [9]: 0%; pest or weed control at 250 g/ha [9]: 0%; pest or weed control at 15.625 g/ha [10]: 0%; pest or weed control at 62.5 g/ha [10]: 0%; pest or weed control at 250 g/ha [10]: 0%; pest or weed control at 15.625 g/ha [11]: 0%; pest or weed control at 62.5 g/ha [11]: 0%; pest or weed control at 250 g/ha [11]: 0%; pest or weed control at 15.625 g/ha [12]: 0%; pest or weed control at 62.5 g/ha [12]: 0%; pest or weed control at 250 g/ha [12]: 0%
Cc1cc(NC(=O)[C@@H]2C(=O)N(C)C[C@H]2c2ccc(C(F)(F)F)cc2)no1 (racemic) [Compound 1556]	0	0	0	0	0	0	0	0	0	0	0	0	0	0	0	0	0	20	0	0	plant injury at 250 g/ha [7]: 0%; pest or weed control at 15.625 g/ha [8]: 0%; pest or weed control at 62.5 g/ha [8]: 0%; pest or weed control at 250 g/ha [8]: 20%; pest or weed control at 15.625 g/ha [9]: 0%; pest or weed control at 62.5 g/ha [9]: 0%; pest or weed control at 250 g/ha [9]: 0%; pest or weed control at 15.625 g/ha [10]: 0%; pest or weed control at 62.5 g/ha [10]: 0%; pest or weed control at 250 g/ha [10]: 0%; pest or weed control at 15.625 g/ha [11]: 0%; pest or weed control at 62.5 g/ha [11]: 0%; pest or weed control at 250 g/ha [11]: 0%; pest or weed control at 15.625 g/ha [12]: 0%; pest or weed control at 62.5 g/ha [12]: 0%; pest or weed control at 250 g/ha [12]: 0%
CN1C[C@H](c2cccc(C(F)F)c2)[C@@H](C(=O)Nc2cccc(F)c2F)C1=O (racemic) [Compound 1588]	60	80	80	0	0	20	70	20	50	0	0	40	60	70	70	80	80	80	40	60	plant injury at 250 g/ha [7]: 80%; pest or weed control at 15.625 g/ha [8]: 0%; pest or weed control at 62.5 g/ha [8]: 40%; pest or weed control at 250 g/ha [8]: 70%; pest or weed control at 15.625 g/ha [9]: 20%; pest or weed control at 62.5 g/ha [9]: 0%; pest or weed control at 250 g/ha [9]: 80%; pest or weed control at 15.625 g/ha [10]: 0%; pest or weed control at 62.5 g/ha [10]: 10%; pest or weed control at 250 g/ha [10]: 20%; pest or weed control at 15.625 g/ha [11]: 70%; pest or weed control at 62.5 g/ha [11]: 80%; pest or weed control at 250 g/ha [11]: 90%; pest or weed control at 15.625 g/ha [12]: 80%; pest or weed control at 62.5 g/ha [12]: 90%; pest or weed control at 250 g/ha [12]: 90%
